Results: the supplement of paper PMC10307832

Assays:
Test in all cases: relative viability (nuclei count vs DMSO), 5 days (fraction); higher = more cells survive
[1] = compound: C1=CC=C2C(=C1)N=C(S2)C(C#N)C3=NC(=NC=C3)NCCC4=CN=CC=C4 + CC(=O)c1c(C)c2cnc(Nc3ccc(N4CCNCC4)cn3)nc2n(C2CCCC2)c1=O [Palbociclib] (partner 0.5 µM)
Procedure, shortened: (§1)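 Cells from lung cancer lines were seeded into 1536-well plates and, one day later, dosed by pin tool. Treatments were either a single drug or a fixed dose of an anchor drug with five library-drug doses (not always all listed) in √10 steps. After 5 days, nuclei were stained in a one-step fixation (final 0.05% Triton X-100, 1% formaldehyde, 1 ug/ml Hoechst) and counted on 4× images, and relative viability is the treated-to-vehicle nuclei ratio, as the median of duplicate plates.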

Vandetanib + Palbociclib = compound: COc1cc2/c(=N/c3ccc(Br)cc3F)nc[nH]c2cc1OCC1CCN(C)CC1 [Vandetanib] + CC(=O)c1c(C)c2cnc(Nc3ccc(N4CCNCC4)cn3)nc2n(C2CCCC2)c1=O [Palbociclib] (partner 0.5 µM)
Procedure, shortened: as §1

[2] = compound: C1=CC=C2C(=C1)N=C(S2)C(C#N)C3=NC(=NC=C3)NCCC4=CN=CC=C4 + CS(=O)(=O)N1CCN(Cc2cc3nc(-c4cccc5[nH]ncc45)nc(N4CCOCC4)c3s2)CC1 [Pictilisib] (partner 1 µM)
Procedure, shortened: as §1

Vandetanib + Bortezomib = compound: COc1cc2/c(=N/c3ccc(Br)cc3F)nc[nH]c2cc1OCC1CCN(C)CC1 [Vandetanib] + CC(C)C[C@H](NC(=O)[C@H](Cc1ccccc1)NC(=O)c1cnccn1)B(O)O [Bortezomib] (partner 0.002 µM)
Procedure, shortened: as §1

Cell Line | relative viability ([1]; first compound 0.005 µM) | relative viability ([1]; first compound 0.01581 µM) | relative viability ([1]; first compound 0.05 µM) | relative viability ([1]; first compound 0.1581 µM) | relative viability ([1]; first compound 0.5 µM) | relative viability (Vandetanib + Palbociclib; first compound 0.02 µM) | relative viability (Vandetanib + Palbociclib; first compound 0.06325 µM) | relative viability (Vandetanib + Palbociclib; first compound 0.2 µM) | relative viability (Vandetanib + Palbociclib; first compound 0.6325 µM) | relative viability (Vandetanib + Palbociclib; first compound 2 µM) | relative viability ([2]; first compound 0.005 µM) | relative viability ([2]; first compound 0.01581 µM) | relative viability ([2]; first compound 0.05 µM) | relative viability ([2]; first compound 0.1581 µM) | relative viability ([2]; first compound 0.5 µM) | relative viability (Vandetanib + Bortezomib; first compound 0.02 µM) | relative viability (Vandetanib + Bortezomib; first compound 0.06325 µM) | relative viability (Vandetanib + Bortezomib; first compound 0.2 µM) | relative viability (Vandetanib + Bortezomib; first compound 0.6325 µM) | relative viability (Vandetanib + Bortezomib; first compound 2 µM)
LCLC-103H | 0.491 | 0.468 | 0.514 | 0.522 | 0.485 | 0.439 | 0.521 | 0.388 | 0.478 | 0.406 | 0.493 | 0.446 | 0.498 | 0.707 | 0.681 | 1.09 | 0.966 | 1.05 | 1.05 | 0.924
LOU-NH91 | 0.545 | 0.552 | 0.477 | 0.563 | 0.543 | 0.564 | 0.524 | 0.535 | 0.543 | 0.416 | 0.51 | 0.515 | 0.477 | 0.533 | 0.489 | 0.514 | 0.47 | 0.535 | 0.504 | 0.504
LU99A | 0.398 | 0.41 | – | 0.47 | 0.39 | 0.378 | 0.428 | 0.337 | 0.359 | 0.376 | 0.281 | 0.354 | 0.336 | 0.394 | 0.338 | 1.14 | 1.22 | 1.11 | 1.07 | 1.07
LXF-289 | 0.46 | 0.6 | 0.612 | 0.625 | 0.503 | 0.588 | 0.565 | 0.518 | 0.575 | 0.558 | 0.705 | 0.922 | 0.893 | 0.899 | 0.676 | 0.999 | 0.895 | 0.932 | 1.04 | 0.986
NCI-H23 | – | 0.456 | 0.528 | 0.577 | 0.411 | 0.416 | 0.427 | 0.489 | 0.54 | 0.495 | – | 0.464 | 0.455 | 0.508 | 0.511 | 1 | 0.944 | 1.06 | 0.785 | 0.884
NCI-H322M | 0.427 | 0.501 | 0.484 | 0.476 | 0.488 | 0.484 | 0.457 | 0.494 | 0.446 | 0.414 | 0.482 | 0.477 | 0.492 | 0.552 | 0.486 | 1.18 | 1.13 | 1.18 | 1.13 | 1.12
NCI-H441 | 0.231 | 0.184 | 0.232 | 0.241 | 0.187 | 0.221 | 0.253 | 0.21 | 0.197 | 0.171 | – | 0.458 | 0.549 | 0.55 | 0.494 | 0.449 | 0.459 | 0.373 | 0.547 | 0.386
NCI-H460 | – | 0.146 | 0.118 | 0.147 | 0.143 | 0.147 | 0.157 | 0.189 | 0.148 | 0.166 | 0.355 | 0.306 | 0.358 | 0.506 | 0.353 | 1.02 | 0.992 | 1.1 | 1.09 | 0.98
NCI-H520 | 0.193 | 0.266 | 0.231 | 0.259 | 0.213 | 0.254 | 0.196 | 0.293 | 0.273 | 0.256 | 0.178 | 0.328 | 0.307 | 0.362 | 0.256 | 0.608 | 0.623 | 0.527 | 0.45 | 0.569
NCI-H647 | 0.376 | 0.407 | 0.372 | 0.378 | 0.442 | 0.402 | 0.385 | 0.384 | 0.358 | 0.381 | – | 0.301 | 0.391 | 0.556 | 0.452 | 0.962 | 0.947 | 1.05 | 0.817 | 0.804
NCI-H650 | 0.321 | 0.336 | 0.301 | 0.321 | 0.323 | 0.358 | 0.317 | 0.366 | 0.323 | 0.291 | 0.728 | 0.845 | 0.804 | 0.934 | 0.901 | 0.757 | 0.877 | 0.705 | 0.862 | 0.596
NCI-H661 | 0.428 | 0.433 | 0.415 | 0.416 | 0.411 | 0.4 | 0.411 | 0.433 | 0.458 | 0.392 | 0.382 | 0.358 | 0.44 | 0.403 | 0.211 | 0.828 | 0.943 | 0.769 | 0.807 | 0.702
NCI-H727 | 0.508 | 0.594 | 0.64 | 0.658 | 0.673 | 0.622 | 0.692 | 0.679 | 0.578 | 0.56 | 0.553 | 0.304 | 0.299 | 0.473 | 0.37 | 0.791 | 0.657 | 0.783 | 0.856 | 0.872
NCI-H838 | 0.223 | 0.211 | 0.216 | 0.214 | 0.213 | 0.219 | 0.227 | 0.243 | 0.216 | 0.219 | 0.463 | 0.413 | 0.439 | 0.612 | 0.391 | 0.73 | 0.807 | 0.664 | 0.706 | 0.614
NCI-H1355 | 0.662 | 0.431 | 0.394 | 0.412 | 0.364 | 0.437 | 0.399 | 0.408 | 0.387 | 0.373 | 0.535 | 0.388 | 0.365 | 0.503 | 0.439 | 1.22 | 1.18 | 1.16 | 1.22 | 1.27
NCI-H1437 | 0.372 | 0.329 | 0.327 | 0.312 | 0.304 | 0.295 | 0.32 | 0.346 | 0.302 | 0.341 | 0.474 | 0.39 | 0.398 | 0.539 | 0.361 | 0.486 | 0.56 | 0.47 | 0.506 | 0.398
